Test results from US6436956B1, “Useful form of anhydrous paroxetine hydrochloride” (Brantford Chemicals Inc., priority 1996, dated 2002).
Where a name gives a salt, the structure may show the parent alone. Read-outs that look alike come from different tables or passages of the source.

Key:
[1] = bulk density and tapped density of the solid; assay type: physicochemical
[2] = hygroscopicity / moisture uptake on exposure to open air; assay type: physicochemical
[3] = solid-form stability, conversion to the hemihydrate polymorph (DSC maximum of 143° C.); assay type: physicochemical
[4] = prior-art form, from literature; cited from earlier work
[5] = prior-art form, purported; cited from earlier work
[6] = Form IV as described in summary (material of Example 2)
[7] = material of Example 5 (methanol solution evaporated to foam, dried, pulverized)

Cl.Fc1ccc([C@@H]2CCNC[C@H]2COc2ccc3c(c2)OCO3)cc1 [Form IV, paroxetine hydrochloride (anhydrous)]
bulk density [1, 6]: exceeding 0.6 g/mL
tapped density [1, 6]: exceeding 0.9 g/mL
bulk density [1, 7]: exceeding 0.43 g/mL
tapped density [1, 7]: > 0.58 g/mL
hygroscopic nature [2]: substantially non-hygroscopic
moisture taken on ([2]; exposed to open air for three days, ca. 50% relative humidity): ≤ 1.5 % by weight
stability [3]: very stable
rate of conversion to the hemihydrate polymorph ([3]; even in humid environments, DSC maximum of 143° C. as indicator): negligible rate

Fc1ccc([C@@H]2CCNC[C@H]2COc2ccc3c(c2)OCO3)cc1 [anhydrous form, paroxetine hydrochloride]
hygroscopic nature [4]: hygroscopic

Fc1ccc([C@@H]2CCNC[C@H]2COc2ccc3c(c2)OCO3)cc1 [hemihydrate form, paroxetine hydrochloride hemihydrate]
stability [5]: purportedly stable
